In US12163169B2, “Inducible chimeric cytokine receptors” (Allogene Therapeutics, Inc., priority 2018, dated 2024):
Ends that are not written are not given here.

How the values were obtained:
Format in all cases: cell-based
[1] = test system: STAT5; assay: HEK293T Stat5 reporter assay of FKBP switches lacking JAK-binding motifs or cytotail tyrosines (Example 3B); conditions: 5 hours post-treatment, compared to positive control FKBP switch TpoR(478-582)/IL7R(316-459), FIG. 5B
Text: To identify components essential for the inducible chimeric cytokine receptor to signal, we generated FKBP switches that lacked either the JAK-binding domains or tyrosine residues in the cytotail domain. Specifically, either one or both JAK-binding motifs from TpoR(478-582) were replaced with glycine linkers, or all or a single (i.e. Y449) tyrosine residue(s) in the IL7R(316-459) cytotail was mutated to phenylalanine. The term “switch” as used in the Example section refers to the inducible chimeric cytokine receptor. For example, an “FKBP switch” as used herein is an inducible chimeric cytokine receptor comprising FKBP as the dimerization domain.
A HEK293T cell reporter assay was used to test how each of these domains affected cytokine signaling. Briefly, 20,000 HEK293T cells were plated into each well of a poly-L-lysine-coated 96-well flat-bottom plate and allowed to adhere overnight. […] 24 hours after transfection, cells were either left untreated, or treated with the indicated concentrations of AP1903 (Apex Bio) diluted in serum-free media, and Stat reporter activity was determined 5 hours post-treatment using the Dual-Glo Luciferase Assay System (Promega). […]

[2] = test system: STAT4; assay: HEK293T transcription factor reporter assay of cytotails (Example 16A), Stat4; conditions: 1 ug/mL AP1903, 6 hours; FIG. 39B
Experimental: To test the signaling pathways activated by different cytotails, we utilized a HEK293T cell reporter assay. Briefly, 20,000 HEK293T cells were plated into each well of a poly-L-lysine-coated 96-well flat-bottom plate and allowed to adhere overnight. An inducible cytokine receptor (2.5 ng), the respective transcription factor response element that drives Firefly Luciferase (100 ng; Promega) and a Renilla Luciferase control reporter vector (1 ng; Promega) were mixed in a final volume of 5 uL in Opti-MEM (Gibco) (“DNA mix”). 0.3 uL Lipofectamine 2000 (Invitrogen) in 5 uL Opti-MEM was incubated at room temperature for 5 minutes and then added to the DNA mix. The mixture was incubated at room temperature for 20 minutes and the total volume of 10 uL was added to each well containing HEK-293T. As a negative control, the FKBP ectodomain was coupled to the transmembrane and short intracellular region of TpoR(478-528) that lacked the JAK-binding domain and cytotail (i.e. TpoR CTRL). As a comparison, the FKBP ectodomain was coupled to the MyD88/CD40 signaling domains (henceforth referred to as “FKBP-MyD88-CD40”). 24 hours after transfection, cells were either left untreated, or treated with 1 ug/mL AP1903 (Apex Bio) diluted in serum-free media. 6 hours after AP1903 treatment, reporter activity was determined using the Dual-Glo Luciferase Assay System (Promega). […]

[3] = test system: U87KO-EGFRvIII-nucRFP target cells; assay: 4-day in vitro cytotoxicity assay against U87KO-EGFRvIII-nucRFP target cells (Example 16B); conditions: EGFRvIII CAR (2173 scFv); E:T 1:8; 500 ng/ml AP1903; 4 days; FIGS. 40A-40F
Experimental: (§1) To test whether different cytotail outputs influenced the effector function of CAR T cells, we performed a 4-day in vitro cytotoxicity assay. Briefly, 30,000 U87KO-EGFRvIII-nucRFP target cells were seeded and allowed to attach in 96-well plates with black walls and flat clear bottom in 50 uL RPMI containing 10% FBS (Hyclone), non-essential amino acids, sodium pyruvate and 20-25 mM HEPES. U87KO-EGFRvIII is a kind gift from Cellectis SA (Paris, France). U87KO-EGFRvIII was derived from the parental cell line, U87MG (ATCC), by first knocking out endogenous wildtype EGFR using Transcription Activator-Like Effector Nucleases (TALEN), and then stably overexpressing full-length human EGFRvIII via lentiviral transduction. To facilitate target cell imaging via the IncuCyte Live Cell Analysis Imaging System, U87KO-EGFRvIII-nucRFP target cells were derived from U87KO-EGFRvIII by a second lentiviral transduction with IncuCyte NucLight Red Lentivirus Reagent (Sartorius). EGFRvIII CAR (2173 scFv) T cells bearing an FKBP switch with the respective cytotails were thawed and added to plated target cells at an Effector:Target (E:T) ratio of 1:8. As a comparison, CAR T cells coexpressing FKBP-MyD88-CD40 were included. […] The number of live target cells at each timepoint was determined by enumerating the number of live nuclearRFP+ cells using the Incucyte Live Cell Analysis Imaging System. […]

[4] = test system: CAR T cells; assay: Cytokine release (MSD assay) at the end of the 4-day cytotoxicity assay (Example 16B)
Experimental: as §1

[5] = test system: CAR T cells; assay: Cytokine release (MSD assay) on Day 5 of the AP1903-driven growth assay (Example 16B); conditions: 500 ng/ml of AP1903; FIGS. 42A-42B
Experimental: To test whether different cytotail outputs influenced the memory differentiation and long-term survival of CAR T cells, we performed an AP1903-driven growth assay. CAR T cells bearing the indicated chimeric receptors were thawed and the percentages of CAR+ cells were normalized to the sample with the lowest transduction efficiency (i.e. 20% CAR+) by adding non-transduced T cells. Cells were either left untreated, or treated with 500 ng/ml of AP1903, and in the absence of exogenous cytokines (unless specified in the case of positive controls) or target cells for 2 weeks. […] On Day 5 of the AP1903-driven growth assay, supernatents were sampled for the analysis of cytokine release using the MSD assay (Meso Scale Discovery). At the end of the 2-week culture, the memory and exhaustion phenotypes of surviving CAR T cells were determined. Briefly, duplicate samples from each culture condition cells were harvested and stained using the Zombie NIR Fixable Viability Kit (Biolegend). […]

[6] = test system: CAR T cells; assay: AP1903-driven growth assay: enrichment, memory and exhaustion phenotype of CAR T cells (Example 16B); conditions: 2 weeks; exogenous recombinant cytokine 10 ng/mL; 20% CAR+ seeded; FIG. 43
Experimental: To test whether different cytotail outputs influenced the memory differentiation and long-term survival of CAR T cells, we performed an AP1903-driven growth assay. CAR T cells bearing the indicated chimeric receptors were thawed and the percentages of CAR+ cells were normalized to the sample with the lowest transduction efficiency (i.e. 20% CAR+) by adding non-transduced T cells. Cells were either left untreated, or treated with 500 ng/ml of AP1903, and in the absence of exogenous cytokines (unless specified in the case of positive controls) or target cells for 2 weeks. As positive controls, CAR T cells were alternatively supplemented with either exogenous recombinant IL-7 or IL-2 (10 ng/mL each; Miltenyi). […] At the end of the 2-week culture, the memory and exhaustion phenotypes of surviving CAR T cells were determined. Briefly, duplicate samples from each culture condition cells were harvested and stained using the Zombie NIR Fixable Viability Kit (Biolegend). […]

IL7R(424-459; Y456F): FKBP switch (Example 16) cytotail said to abrogate Stat5 activity, used as comparator (GILTLNPVAQGQPILTSLGSNQEEAYVTMSSFFQNQ; also: FKBP switch fusion; UniProt P16871 424-459, looked up, variant Y456F)
AP1903-induced Stat5 reporter activity [1]: abrogates Stat5 activity

IL12Rb2small(775-825): FKBP switch (Example 16) bearing the IL12Rb2small(775-825) cytotail (SDPKPENPACPWTVLPAGDLPTHDGYLPSNIDDLPSHEAPLADSLEELEPQ; also: FKBP switch fusion; UniProt Q99665 775-825, looked up, fragment)
Stat4 reporter activation [2]: activating Stat4 | CAR T cell cytotoxicity in the presence of AP1903 [3]: enhances CART cell cytotoxic potency | IL-10 secretion ([4]; AP1903, FIG. 41A): increased IL-10 secretion | pro-inflammatory cytokine release in the presence of AP1903 ([4]; IL-17A/F, IL-21, TNFa and IFNg, FIG. 41A): released elevated amounts of pro-inflammatory cytokines | cytokine release on Day 5 of AP1903-driven growth [5]: secrete elevated amounts of pro-inflammatory cytokines

B1: IL-7: exogenous recombinant IL-7 (Miltenyi), positive control (protein, UniProt P13232 26-177, looked up)
Interleukin-7: DCDIEGKDGKQYESVLMVSIDQLLDSMKEIGSNCLNNEFNFFKRHICDANKEGMFLFRAARKLRQFLKMNSTGDFDLHLLKVSEGTTILLNCTGQVKGRKPAALGEAQPTKSLEENKSLKEQKKLNDLCFLKRLLQEIKTCWNKILMGTKEH
percentage of CAR+ cells [6]: ~20%
